Here are results for 18 compounds from ChEMBL document CHEMBL3351531, “Scaffold hopping of sampangine: discovery of potent antifungal lead compound against Aspergillus fumigatus and Cryptococcus neoformans” (Bioorg Med Chem Lett, 2014).

In brackets after ≈: the same amount, converted by molar mass. Where only a bound is given, the exact number is not on record here.

Data set [1] concerns Nannizzia gypsea. In words: Antifungal activity against Microsporum gypseum by serial dilution method. In kind it is functional.
The subject of data set [2] is Cryptococcus neoformans. The data set is described as follows: Antifungal activity against Cryptococcus neoformans after 72 hrs by serial dilution method. In kind it is functional.
For data set [3], the system named is Candida parapsilosis. In words: Antifungal activity against Candida parapsilosis after 24 hrs by serial dilution method. Type of data set: functional. Particulars: Lodderomyces parapsilosis.
Data set [4] has as its system Trichophyton rubrum. The data set is described as follows: Antifungal activity against Trichophyton rubrum by serial dilution method. In kind it is functional.
Data set [5] deals with Candida albicans. The data set is described as follows: Antifungal activity against Candida albicans after 24 hrs by serial dilution method. Type of data set: functional.
The test system of data set [6] is Nakaseomyces glabratus. The data set is described as follows: Antifungal activity against Candida glabrata after 24 hrs by serial dilution method. Type of data set: functional.
Data set [7] relates to Aspergillus fumigatus. In words: Antifungal activity against Aspergillus fumigatus after 7 days by serial dilution method. Particulars: 168 h. In kind it is functional.
Data set [8] in a line: Kinetic solubility of the compound in PBS buffer at pH 7.4. In kind it is physicochemical. The following applies: read-out: Kinetic_solubility.

Consider `O=C1c2occc2-c2nccc3ccnc1c23`, for which the MIC80 is 16 µg/mL (≈ 72 µM) in data set [1]; 16 µg/mL (≈ 72 µM) in data set [2]; above 64 µg/mL in data set [3]; 8 µg/mL (≈ 36 µM) in data set [4]; 32 µg/mL (≈ 144 µM) in data set [5]; 32 µg/mL (≈ 144 µM) in data set [6]. Also, the MIC80 in data set [7] came to 32 µg/mL (≈ 144 µM).

Consider `CC(=O)Nc1ccc(-c2cc3ccnc4c3c(n2)-c2sccc2C4=O)cc1`, for which the MIC80 was above 64 µg/mL in data set [1]; above 64 µg/mL in data set [2]; above 64 µg/mL in data set [3]; above 64 µg/mL in data set [4]; 32 µg/mL (≈ 86.2 µM) in data set [5]; above 64 µg/mL in data set [6]. This compound had an MIC80 in data set [7] above 64 µg/mL.

With `O=C1c2ccsc2-c2nc(-c3ccccc3)cc3ccnc1c23`, the MIC80 is above 64 µg/mL in data set [1]; 4 µg/mL (≈ 12.7 µM) in data set [2]; above 64 µg/mL in data set [3]; 16 µg/mL (≈ 50.9 µM) in data set [4]; 32 µg/mL (≈ 102 µM) in data set [5]; above 64 µg/mL in data set [6]. This compound yielded an MIC80 in data set [7] above 64 µg/mL.

As for `O=C1c2ccsc2-c2nccc3c(Br)cnc1c23`, the MIC80 in data set [1] was 0.5 µg/mL (≈ 1.58 µM); in data set [2] it was 4 µg/mL (≈ 12.6 µM); in data set [3] it was 16 µg/mL (≈ 50.4 µM); in data set [4], 2 µg/mL (≈ 6.31 µM); in data set [5], 4 µg/mL (≈ 12.6 µM); in data set [6] it was 4 µg/mL (≈ 12.6 µM). Besides, the MIC80 in data set [7] came to 8 µg/mL (≈ 25.2 µM).

Take `Cc1ccccc1-c1cc2ccnc3c2c(n1)-c1sccc1C3=O`: the MIC80 in data set [1] is above 64 µg/mL; in data set [2] it was above 64 µg/mL; in data set [3], above 64 µg/mL; in data set [4], 32 µg/mL (≈ 97.4 µM); in data set [5], 32 µg/mL (≈ 97.4 µM); in data set [6], above 64 µg/mL. In data set [7], this compound yielded an MIC80 above 64 µg/mL.

Turning to `O=C1c2ccoc2-c2nccc3ccnc1c23`, the MIC80 was 16 µg/mL (≈ 72 µM) in data set [1]; 8 µg/mL (≈ 36 µM) in data set [2]; above 64 µg/mL in data set [3]; 8 µg/mL (≈ 36 µM) in data set [4]; 32 µg/mL (≈ 144 µM) in data set [5]; 64 µg/mL (≈ 288 µM) in data set [6]. The same compound showed an MIC80 in data set [7] of 32 µg/mL (≈ 144 µM).

With `COc1cnc2c3c(nccc13)-c1sccc1C2=O`, the MIC80 in data set [1], in data set [2], in data set [3], in data set [4], in data set [5] and in data set [6] was above 64 µg/mL in each case. In data set [7], this compound yielded an MIC80 above 64 µg/mL.

Turning to `O=C1c2cc(Br)sc2-c2nccc3ccnc1c23`, the MIC80 in data set [1] was 1 µg/mL (≈ 3.15 µM); in data set [2], 4 µg/mL (≈ 12.6 µM); in data set [3], 64 µg/mL (≈ 202 µM); in data set [4], 2 µg/mL (≈ 6.31 µM); in data set [5], 8 µg/mL (≈ 25.2 µM); in data set [6] it was 4 µg/mL (≈ 12.6 µM). In data set [7], this compound registered an MIC80 of 4 µg/mL (≈ 12.6 µM).

Regarding `Cn1cc2c(c1)-c1nccc3ccnc(c13)C2=O`, the solubility kinetic in data set [8] amounted to 17 µg/mL (≈ 72.3 µM). Moreover, the MIC80 in data set [1], in data set [2], in data set [3], in data set [4], in data set [5] and in data set [6] was above 64 µg/mL in each case. In data set [7], the MIC80 was above 64 µg/mL.

As for `O=C1c2cc(Cl)sc2-c2nccc3c(Cl)cnc1c23`, the MIC80 in data set [1] was 8 µg/mL (≈ 26 µM); in data set [2] it was above 64 µg/mL; in data set [3], above 64 µg/mL; in data set [4] it was above 64 µg/mL; in data set [5], 32 µg/mL (≈ 104 µM); in data set [6], above 64 µg/mL. This compound displayed an MIC80 in data set [7] above 64 µg/mL.

On to `CN1CCN(c2cnc3c4c(nccc24)-c2sccc2C3=O)CC1`, for which the MIC80 in data set [1] is above 64 µg/mL; in data set [2], 64 µg/mL (≈ 190 µM); in data set [3], above 64 µg/mL; in data set [4], above 64 µg/mL; in data set [5] it was above 64 µg/mL; in data set [6], 64 µg/mL (≈ 190 µM). Moreover, the MIC80 in data set [7] is above 64 µg/mL.

Consider `O=C1c2ccsc2-c2nc(-c3cccnc3)cc3ccnc1c23`, for which the MIC80 is 32 µg/mL (≈ 101 µM) in data set [1]; 32 µg/mL (≈ 101 µM) in data set [2]; above 64 µg/mL in data set [3]; above 64 µg/mL in data set [4]; 32 µg/mL (≈ 101 µM) in data set [5]; above 64 µg/mL in data set [6]. Besides, in data set [7], the MIC80 was above 64 µg/mL.

With `OC(Cn1cncn1)(Cn1cncn1)c1ccc(F)cc1F` [FLUCONAZOLE], the MIC80 turned out to be 16 µg/mL (≈ 52.2 µM) in data set [1]; 0.25 µg/mL (≈ 0.816 µM) in data set [2]; 1 µg/mL (≈ 3.27 µM) in data set [3]; 0.5 µg/mL (≈ 1.63 µM) in data set [4]; 0.5 µg/mL (≈ 1.63 µM) in data set [5]; 0.25 µg/mL (≈ 0.816 µM) in data set [6]. Also, the MIC80 in data set [7] was above 64 µg/mL.

With `O=C1c2ccccc2-c2nccc3ccnc1c23` [SAMPANGINE], the solubility kinetic in data set [8] was 12.6 µg/mL (≈ 54.3 µM). Also, the MIC80 in data set [1] was above 64 µg/mL; in data set [2], 2 µg/mL (≈ 8.61 µM); in data set [3] it was 4 µg/mL (≈ 17.2 µM); in data set [4] it was 16 µg/mL (≈ 68.9 µM); in data set [5], 0.5 µg/mL (≈ 2.15 µM); in data set [6], 0.125 µg/mL (≈ 0.538 µM). The compound further gave an MIC80 in data set [7] of 16 µg/mL (≈ 68.9 µM).

As for `CC1(C)CC2=C(O1)C(=O)c1nccc3ccnc2c13`, the solubility kinetic in data set [8] turned out to be 27 µg/mL (≈ 107 µM). The MIC80 was above 64 µg/mL in data set [1]; 2 µg/mL (≈ 7.93 µM) in data set [2]; above 64 µg/mL in data set [3]; 8 µg/mL (≈ 31.7 µM) in data set [4]; above 64 µg/mL in data set [5]; 0.125 µg/mL (≈ 0.495 µM) in data set [6]. Also, the MIC80 in data set [7] is 1 µg/mL (≈ 3.96 µM).

With `O=C1c2ccsc2-c2nccc3ccnc1c23`, the solubility kinetic in data set [8] was 48 µg/mL (≈ 201 µM). Further, the MIC80 in data set [1] was found to be 2 µg/mL (≈ 8.39 µM); in data set [2], 0.25 µg/mL (≈ 1.05 µM); in data set [3], 8 µg/mL (≈ 33.6 µM); in data set [4], 2 µg/mL (≈ 8.39 µM); in data set [5], 4 µg/mL (≈ 16.8 µM); in data set [6], 4 µg/mL (≈ 16.8 µM). For the same compound, in data set [7], the MIC80 was found to be 1 µg/mL (≈ 4.2 µM).

Consider `O=C1c2ccsc2-c2nccc3c(Cl)cnc1c23`, for which the MIC80 in data set [1] was 0.125 µg/mL (≈ 0.458 µM); in data set [2], 0.5 µg/mL (≈ 1.83 µM); in data set [3] it was above 64 µg/mL; in data set [4], 2 µg/mL (≈ 7.33 µM); in data set [5] it was 32 µg/mL (≈ 117 µM); in data set [6], 0.5 µg/mL (≈ 1.83 µM). This compound also registered an MIC80 in data set [7] of 2 µg/mL (≈ 7.33 µM).

Regarding `Cn1ccc2c1C(=O)c1nccc3ccnc-2c13`, the solubility kinetic in data set [8] was determined as 22 µg/mL (≈ 93.5 µM). Moreover, the MIC80 in data set [1] is above 64 µg/mL; in data set [2], 8 µg/mL (≈ 34 µM); in data set [3], above 64 µg/mL; in data set [4] it was 16 µg/mL (≈ 68 µM); in data set [5], 64 µg/mL (≈ 272 µM); in data set [6], 32 µg/mL (≈ 136 µM). The compound also yielded an MIC80 in data set [7] of 64 µg/mL (≈ 272 µM).

Usually MIC80 stands for an inhibitory concentration at the 80% level, which refers to growth in some studies and to a panel of isolates in others. Lower therefore signals higher susceptibility.
